Among the data in ChEMBL document CHEMBL3868605, “Flavans with potential anti-inflammatory activities from Zephyranthes candida” (Bioorg Med Chem Lett, 2016) are IC50 and viability values, retold here.

A short description of data set [1]: Antiinflammatory activity in mouse RAW264.7 cells assessed as inhibition of LPS-induced nitric oxide production after 24 hrs in presence of LPS by Griess assay. The class given is functional, cell-based. The conditions noted are these: RAW264.7, 24 h.
Data set [2] is described as follows: Cytotoxicity against mouse RAW264.7 cells assessed as cell survival rate at 200 uM after 24 hrs in absence of LPS by MTT assay. Format: toxicity. Conditions: read-out: Survival. (In general: Tetrazolium dyes change colour on reduction, which living cells bring about.)
A short description of data set [3]: Cytotoxicity against mouse RAW264.7 cells assessed as cell survival rate at 200 uM after 24 hrs in presence of LPS by MTT assay. The class given is toxicity. The conditions noted are these: read-out: Survival.

A word on the IC50: it is the concentration that inhibits the measured activity by half. Turning to `COc1ccc2c(c1)O[C@H](c1ccccc1)[C@H](O)C2`, the IC50 in data set [1] was found to be 17.3 µM. Besides, the results for the viability at 24 h, 200 µM in data set [2] and in data set [3] were 119% and 104%, respectively.
Taken in the same sequence, the figures for `COc1ccc([C@@H]2CCc3ccc(O)cc3O2)cc1O[C@@H]1O[C@H](CO)[C@@H](O)[C@H](O)[C@H]1O` were 16.1 µM, 123% and 114%.
Regarding `COc1ccc([C@@H]2CCc3ccc(O[C@@H]4O[C@H](CO)[C@@H](O)[C@H](O)[C@H]4O)cc3O2)cc1O`, the IC50 in data set [1] was 21.5 µM. The viability at 24 h, 200 µM stood at 104% in data set [2] and 116% in data set [3].
`C[C@@H]1C[C@H]2[C@@H]3CCC4=CC(=O)C=C[C@]4(C)[C@@]3(F)[C@@H](O)C[C@]2(C)[C@@]1(O)C(=O)CO` [DEXAMETHASONE]: the half-inhibitory concentration (IC50) in data set [1] came to 0.63 µM. For the same compound, the viability at 24 h, 200 µM in data set [2] was found to be 91%; in data set [3], 100%.
